Experimental data reported in US7939272B2, “Biological markers predictive of anti-cancer response to insulin-like growth factor-1 receptor kinase inhibitors” (OSI Pharmaceuticals, Inc., priority 2007, dated 2011).
Like-named read-outs stand apart in the source and are kept apart here.

Legend:
H292 cells = assay: Cell-Titer Glo cell growth inhibition; type: cell-based, human; conditions: NSCLC cell line H292
Procedure: (§1) The NSCLC lines with IGF-1R, H292, H358, H322, H441, A549, Calu6, H460, H1703 and SW1573 were cultured in the appropriate ATCC recommended supplemented media. Cell extracts were prepared by detergent lysis ((50 mM Tris-HCl, pH8, 150 mM NaCl, 1% NP-40, 0.5% NaDeoxycholate, 0.1% SDS) containing protease and phosphatase inhibitors. The soluble protein concentration was determined by micro-BSA assay (Pierce, Rockford Ill.).
(§2) IGF-1R inhibitor Compound 66 (i.e. 3-(3-Azetidin-1-ylmethyl-cyclobutyl)-1-(2-phenyl-quinolin-7-yl)-imidazo[1,5-a]pyrazin-8-ylamine; see structure below) stock concentration was 10 mM in 100% DMSO (dimethyl sulfoxide). Serial dilutions (1:3 or 1:4) were used to establish the 50% inhibitory dose of IGF-1R inhibitor. Before dosing, inhibitor was diluted in 100% DMSO, and then added to the cells at desired final concentrations in duplicates. The final DMSO concentration was between 0.3-0.5%. Compound 66 was synthesized by the methods described in published International patent application number WO 2005/097800 A1.
(§3) For measuring cell viability, Cell-Titer Glo assay was used, which is available as a kit from Promega. The basis of the assay is a luminescent quantitation of ATP present in a cell culture plate well. In essence, the greater the number of viable cells in the well, the greater the level of ATP present. The assay utilizes a substrate that binds ATP to produce a luminescent signal, which can be read on a luminometer. Unless otherwise noted, the manufacturer's instructions were followed exactly. Briefly, on Day 1, cells were plated in 120 μl of 10% serum-containing growth media at a density of 4000 cells/well in a white polystyrene 96 well assay plate. On day 2, cells were treated with 15 μl of 10× concentration of the IGF-1R inhibitor (e.g. Compound 66, PQIP) or DMSO alone for a final well volume of 150 μl. After 72 h incubation with the inhibitor, the cells were assayed. Results were calculated as a fraction of the DMSO controlled cells.

A549 cells = assay: Cell-Titer Glo cell growth inhibition; type: cell-based, human; conditions: NSCLC cell line A549
Procedure: as §1, §2, §3

H358 cells = assay: Cell-Titer Glo cell growth inhibition; type: cell-based, human; conditions: NSCLC cell line H358
Procedure: as §1, §2, §3

SW1573 cells = assay: Cell-Titer Glo cell growth inhibition; type: cell-based, human
Procedure: as §1, §2, §3

H441 cells = assay: Cell-Titer Glo cell growth inhibition; type: cell-based, human; conditions: NSCLC cell line H441
Procedure: as §1, §2, §3

IGF-1R kinase = IGF-1R kinase (Homo sapiens, UniProt P08069); assay: IGF-1R kinase inhibition; type: biochemical; conditions: IGF-1R kinase inhibitor potency, approx.
Sequence of IGF-1R kinase (P08069 31-1367): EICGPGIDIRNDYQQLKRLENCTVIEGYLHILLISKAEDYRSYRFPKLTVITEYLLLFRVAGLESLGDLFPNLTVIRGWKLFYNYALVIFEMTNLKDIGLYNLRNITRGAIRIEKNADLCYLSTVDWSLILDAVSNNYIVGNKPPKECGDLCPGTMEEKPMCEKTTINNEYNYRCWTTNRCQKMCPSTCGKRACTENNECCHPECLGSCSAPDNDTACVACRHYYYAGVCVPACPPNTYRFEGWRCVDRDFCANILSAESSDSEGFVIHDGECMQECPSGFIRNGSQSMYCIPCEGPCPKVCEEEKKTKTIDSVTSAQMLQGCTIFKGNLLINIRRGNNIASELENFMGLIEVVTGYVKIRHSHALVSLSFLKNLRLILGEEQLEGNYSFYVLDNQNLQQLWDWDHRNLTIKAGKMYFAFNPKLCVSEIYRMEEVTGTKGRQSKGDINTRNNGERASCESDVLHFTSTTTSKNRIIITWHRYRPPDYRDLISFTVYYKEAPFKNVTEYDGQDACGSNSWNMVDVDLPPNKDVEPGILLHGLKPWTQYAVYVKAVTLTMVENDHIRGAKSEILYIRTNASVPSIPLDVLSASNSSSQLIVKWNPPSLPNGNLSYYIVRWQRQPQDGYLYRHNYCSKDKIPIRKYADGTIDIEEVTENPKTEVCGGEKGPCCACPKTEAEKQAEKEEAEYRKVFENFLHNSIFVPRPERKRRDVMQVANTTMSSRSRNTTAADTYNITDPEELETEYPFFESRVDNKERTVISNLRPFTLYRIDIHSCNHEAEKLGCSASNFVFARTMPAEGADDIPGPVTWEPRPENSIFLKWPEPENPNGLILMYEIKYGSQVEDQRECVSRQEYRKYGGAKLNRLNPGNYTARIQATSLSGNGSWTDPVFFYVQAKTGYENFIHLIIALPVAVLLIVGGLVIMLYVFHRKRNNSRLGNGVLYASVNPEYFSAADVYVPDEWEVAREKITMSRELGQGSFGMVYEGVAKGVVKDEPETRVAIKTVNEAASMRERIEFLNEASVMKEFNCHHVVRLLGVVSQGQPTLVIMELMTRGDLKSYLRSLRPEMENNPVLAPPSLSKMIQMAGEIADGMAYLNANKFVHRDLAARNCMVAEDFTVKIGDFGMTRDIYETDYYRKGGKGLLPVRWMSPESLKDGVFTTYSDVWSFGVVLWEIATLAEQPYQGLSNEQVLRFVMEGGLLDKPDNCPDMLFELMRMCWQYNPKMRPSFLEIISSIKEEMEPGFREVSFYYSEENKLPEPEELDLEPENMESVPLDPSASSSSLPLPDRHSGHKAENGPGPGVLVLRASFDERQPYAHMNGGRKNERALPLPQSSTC

H460 cells = assay: Cell-Titer Glo cell growth inhibition; type: cell-based, human
Procedure: as §1
as §2, with “Compound 66 was synthesized by the methods described in published International patent application number WO 2005/097800 A1.” left out
(§4) For measuring cell viability, Cell-Titer Glo assay was used, which is available as a kit from Promega. The basis of the assay is a luminescent quantitation of ATP present in a cell culture plate well. […] The assay utilizes a substrate that binds ATP to produce a luminescent signal, which can be read on a luminometer. […] Results were calculated as a fraction of the DMSO controlled cells.

DLD-1 cells = assay: Cell-Titer Glo cell growth inhibition; type: cell-based, human
Procedure: as §3, with “IGF-1R inhibitor Compound PQIP: […] PQIP was dissolved in DMSO at 10 mmol/L for use in biochemical or cellular assays done in vitro. For in vivo studies, PQIP was dissolved in 25 mmol/L tartaric acid at an appropriate concentration to deliver the desired dose at 20 mL/kg by oral gavage. For” for “For”

RKO cells = assay: Cell-Titer Glo cell growth inhibition; type: cell-based, human
Procedure: as §3, with “IGF-1R inhibitor Compound PQIP: […] PQIP was dissolved in DMSO at 10 mmol/L for use in biochemical or cellular assays done in vitro. For in vivo studies, PQIP was dissolved in 25 mmol/L tartaric acid at an appropriate concentration to deliver the desired dose at 20 mL/kg by oral gavage. For” for “For”

CFPAC cells = assay: Cell-Titer Glo cell growth inhibition; type: cell-based, human; conditions: growth inhibition by an IGF-1R kinase inhibitor
Description: (§5) The cell lines HCT-116, HT-29, GEO, Colo205, SW480, SW620, BxPC3, HPAC, CFPAC-1, MiaPaca-2, Panc1, A1165, MDA-MB-231, MDA-MB-435, DU4475, and MDA-MB468 were routinely cultured in media as prescribed by the ATCC containing 10% FCS. With the exception of GEO tumor cells (obtained from Roswell Park Cancer Institute (RPCI)), and A1165 (obtained from FCRF (NCI-Frederick Cancer Research Facility)) all tumor cells were obtained from the ATCC.
(§6) IGF-1R inhibitor Compound PQIP: Synthesis of PQIP: cis-3-[3-(4-Methyl-piperazin-1-yl)-cyclobutyl]1-(2-phenyl-quinolin-7-yl)-imidazo[1,5-a]pyrazin-8-ylamine (PQIP; see structure below), is a 1,3-disubstituted-8-amino-imidazopyrazine derivative synthesized by the methods described in patent application number WO 2005/097800 A1. Compound identity and purity (>99%) was verified by ^1H and ^13C nuclear magnetic resonance, mass spectrometry (MS), and high-performance liquid chromatography using Bruker Advance 400, WatersMicromass ZQ, and Waters LC Module I Plus instruments, respectively, as well as by elemental analysis. PQIP was dissolved in DMSO at 10 mmol/L for use in biochemical or cellular assays done in vitro. For in vivo studies, PQIP was dissolved in 25 mmol/L tartaric acid at an appropriate concentration to deliver the desired dose at 20 mL/kg by oral gavage.
as §3

BxPC3 cells = assay: Cell-Titer Glo cell growth inhibition; type: cell-based, human; conditions: BxPC3, growth inhibition by an IGF-1R kinase inhibitor
Description: as §5, §6, §3

HT-29 cells = assay: Cell-Titer Glo cell growth inhibition; type: cell-based, human; conditions: HT-29, growth inhibition by an IGF-1R kinase inhibitor
Description: as §5, §6, §3

GEO cells = assay: Cell-Titer Glo cell growth inhibition; type: cell-based, human; conditions: growth inhibition by an IGF-1R kinase inhibitor
Description: as §5, §6, §3

Colo205 cells = assay: Cell-Titer Glo cell growth inhibition; type: cell-based, human; conditions: Colo205, growth inhibition by an IGF-1R kinase inhibitor
Description: as §5, §6, §3

MiaPaca-2 cells = assay: Cell-Titer Glo cell growth inhibition; type: cell-based, human; conditions: MiaPaca-2, growth inhibition by an IGF-1R kinase inhibitor
Description: as §5, §6, §3

HPAC cells = assay: Cell-Titer Glo cell growth inhibition; type: cell-based, human; conditions: growth inhibition by an IGF-1R kinase inhibitor
Description: as §5, §6, §3

Panc1 cells = assay: Cell-Titer Glo cell growth inhibition; type: cell-based, human; conditions: Panc1, growth inhibition by an IGF-1R kinase inhibitor
Description: as §5, §6, §3

MCF-7 cells = assay: Cell-Titer Glo cell growth inhibition; type: cell-based; conditions: Homo sapiens, MCF7, 3 μM PQIP, activating mutation in PI3K
Procedure: as §3, with “The” for “For measuring cell viability, Cell-Titer Glo assay was used, which is available as a kit from Promega. The”, “On day 2, cells were treated with 15 μl of 10× concentration of the IGF-1R inhibitor (e.g. Compound 66, PQIP) or DMSO alone for a final well volume of 150 μl.” left out

[1] = tested on: panel comprised of 28 tumor cell lines; assay: Cell-Titer Glo cell growth inhibition, tumor cell line panel; type: cell-based, human; conditions: for inhibition at 3 µM: Homo sapiens, 3 μM PQIP, 28 tumor cell lines
Procedure: as §1, §5
as §6, with “For in vivo studies, PQIP was dissolved in 25 mmol/L tartaric acid at an appropriate concentration to deliver the desired dose at 20 mL/kg by oral gavage.” left out
as §4

HCT-116 cells = assay: Cell-Titer Glo cell growth inhibition; type: cell-based; conditions: Homo sapiens, 3 μM PQIP, activating mutation in PI3K
Description: as §5
IGF-1R inhibitor Compound PQIP: Synthesis of PQIP: cis-3-[3-(4-Methyl-piperazin-1-yl)-cyclobutyl]1-(2-phenyl-quinolin-7-yl)-imidazo[1,5-a]pyrazin-8-ylamine (PQIP; see structure below), is a 1,3-disubstituted-8-amino-imidazopyrazine derivative synthesized by the methods described in patent application number WO 2005/097800 A1. […]
as §4

Nc1nccn2c1c(-c1ccc3ccc(-c4ccccc4)nc3c1)nc2[C@H]1C[C@@H](CN2CCC2)C1 [Compound 66, 3-(3-Azetidin-1-ylmethyl-cyclobutyl)-1-(2-phenyl-quinolin-7-yl)-imidazo[1,5-a]pyrazin-8-ylamine]
sensitivity to Compound 66-mediated growth inhibition (H292 cells): sensitive
sensitivity to Compound 66-mediated growth inhibition (A549 cells): intermediate sensitivity
sensitivity to Compound 66-mediated growth inhibition (H358 cells): sensitive
inhibition at 10 µM (SW1573 cells; Homo sapiens, SW1573 cells, 10 μM inhibitor, read-out: growth inhibition in vitro): < 10%
sensitivity to Compound 66-mediated growth inhibition (SW1573 cells; NSCLC cell line SW1573): relatively insensitive
sensitivity to Compound 66-mediated growth inhibition (H441 cells): sensitive
IC50 (IGF-1R kinase): ~50 nM
sensitivity to Compound 66-mediated growth inhibition (H460 cells; NSCLC cell line H460): relatively insensitive

CN1CCN([C@H]2C[C@@H](c3nc(-c4ccc5ccc(-c6ccccc6)nc5c4)c4c(N)nccn43)C2)CC1 [PQIP, cis-3-[3-(4-Methyl-piperazin-1-yl)-cyclobutyl]1-(2-phenyl-quinolin-7-yl)-imidazo[1,5-a]pyrazin-8-ylamine]
sensitivity to IGF-1R inhibition (DLD-1 cells; DLD1, growth inhibition by an IGF-1R kinase inhibitor): relatively sensitive
inhibition at 3 µM (DLD-1 cells; Homo sapiens, DLD-1 cells, 3 μM PQIP, activating mutation in PI3K): < 20%
inhibition at 3 µM (RKO cells; Homo sapiens, RKO cells, 3 μM PQIP, activating mutation in PI3K): < 20%
sensitivity to IGF-1R inhibition (RKO cells; RKO, growth inhibition by an IGF-1R kinase inhibitor): relatively insensitive
sensitivity to IGF-1R inhibition (CFPAC cells): relatively sensitive
sensitivity to IGF-1R inhibition (BxPC3 cells): relatively sensitive
sensitivity to IGF-1R inhibition (HT-29 cells): relatively sensitive
sensitivity to IGF-1R inhibition (GEO cells): relatively sensitive
sensitivity to IGF-1R inhibition (Colo205 cells): relatively sensitive
sensitivity to IGF-1R inhibition (MiaPaca-2 cells): relatively insensitive
sensitivity to IGF-1R inhibition (HPAC cells): relatively sensitive
sensitivity to IGF-1R inhibition (Panc1 cells): relatively insensitive
inhibition at 3 µM (MCF-7 cells): > 70%
inhibition at 3 µM ([1]; read-out: median growth inhibition for the panel): 37%
inhibition at 3 µM ([1]; 72 hours after dosing, read-out: % maximal growth inhibition, range of sensitivities over the panel): 2 to 72%
effects of varying concentrations on cell proliferation ([1]; all cell lines, data not shown): dose-dependent
inhibition at 3 µM (H460 cells; Homo sapiens, NCI-H460 cells, 3 μM PQIP, activating mutation in PI3K): < 20%
inhibition at 3 µM (HCT-116 cells): > 70%
